In test [1] the test system is KCa3.1 channel. Put plainly: Western blotting of KCa3.1 channel phosphorylation in NIH-3T3 cells. It counts as cell-based. The protocol:
After the treatment, cells were washed once in ice-cold phosphate buffered saline (PBS) and lysed in protein extraction buffer containing protease inhibitor cocktail. Protein concentration in the supernatant was determined by Bradford protein assay. For Western blot analysis, 30 μg of protein was subjected to SDS-PAGE, and proteins were then transferred to a nitrocellulose membrane. Membranes were blocked for 1 hour with TBST (10 mM Tris-HCl, 150 mM NaCl, and 1% (v/v) Tween-20, pH 7.6) containing 5% bovine serum albumin (BSA) at room temperature. The blots were incubated for 3 hours with rabbit anti-P-PKA substrate antibody followed by incubation with horseradish peroxidase-conjugated secondary antibodies for 1 hour. Bands were visualized by chemiluminescence. Data collection and processing were performed using a luminescent image analyzer LAS-3000 and IMAGE GAUSE software (Fuji Film, Japan).

A further test concerns NIH-3T3 fibroblasts. Put plainly: Measurement of intracellular cAMP in NIH-3T3 fibroblasts. Type of test: cell-based. The following applies: for intracellular cAMP concentration: NIH-3T3 cells. The protocol:
Meanwhile, NIH-3T3 fibroblasts were used to verify the effect on KCa3.1 mediated diseases. NIH-3T3 fibroblasts (CRL-2795; American Type Culture Collection, VA, USA) were maintained in the following manner. Cells were cultivated as a monolayer in Dulbecco's Modified Eagle Medium (DMEM, Hyclone, Logan, Utah, USA) added with 10% fetal bovine serum (FBS), 100 units/ml penicillin, and 100 μg/ml streptomycin. All cells were maintained at 37° C. in humidified condition under 5% CO2. Media were changed twice weekly, and cultures were passaged at a dilution of 1:5 weekly. The medium was then removed and replaced with fresh medium, and the cells were maintained for the time periods indicated.
NIH-3T3 fibroblasts were incubated with modafinil for 3 minutes within incomplete media. The concentration of cAMP (adenosine 3′,5′-cyclic monophosphate) from lysate was determined in each sample using a Parameter cAMP assay kit (R&D systems) according to the manufacturer's instructions.

Test [2] concerns rat pulmonary arterial rings. Put plainly: Contraction measurement on isolated rat pulmonary arterial rings. The following applies: for effect on vascular smooth muscle contraction: norepinephrine (0.1 μM)-induced contraction of rat pulmonary artery; for IC50: Rattus norvegicus. The protocol:
(§1) Experimental animals were used to examine the effect of modafinil on relaxation of contracted blood vessels. Five to six-month-old mice or rats were anaesthetized by an intraperitoneal injection of pentobarbital sodium (50 mg/kg, weight). The mouse thoracic aorta and rat pulmonary artery were dissected out and cut into rings of about 3 mm. Mechanical responses were recorded from the ring segments using a home-made myograph. Each ring was threaded with two strands of tungsten wire (120 μm in diameter). One wire was anchored in the organ bath chamber (1 ml) and the other was connected to a mechano-transducer (Grass, FT-03) mounted on a three dimensional manipulator. The muscle chamber was perfused at a flow rate of 2.5 ml/minute with oxygenated (95% O2/5% CO2) Krebs/Ringer bicarbonate solution with a peristaltic pump. The composition (unit: mM) of the Krebs solution was as follows: NaCl 118.3, KCl 4.7, MgCl2 1.2, KH2PO4 1.22, CaCl2 2.5, NaHCO3 25.0, glucose 11.1, pH 7.4. Endothelial cells were removed by gentle rubbing with a cotton ball and NO production in endothelial cells was inhibited by pretreating with NG-nitro-1-arginine methyl ester (l-NAME). Rings were pre-contracted with 0.1 μM norepinephrine or 30 mM K+.
Since increase in intracellular cAMP in vascular smooth muscle cells activates PKA and phosphorylates myosin light chain active enzyme to relax vascular smooth muscles, the present inventors examined whether modafinil relaxes vascular smooth muscles. Mouse aortic rings or rat pulmonary arterial rings were contracted by norepinephrine (0.1 μM). When the contraction reached a steady-state, modafinil was applied. With the application, the contracted mouse aortic ring (FIGS. 3A and 3B) or rat pulmonary arterial ring (FIGS. 3C and 3D) was relaxed in a concentration-dependent manner. […] When rat pulmonary artery was contracted by K+ (30 mM) of a high concentration, modafinil relaxed the contracted artery in a concentration-dependent manner (FIG. 3E). When the concentration-dependent reaction of rat pulmonary artery was fitted to Hill's equation, the IC50 of modafinil was determined to be 10.5±0.4 nM (FIG. 3F).

In test [3] the target is T1, KCa3.1 channel (Mus musculus, UniProt O89109).
T1 construct: cells which were not exposed to modafinil or forskolin were immunoblotted by anti-KCa3.1 antibody to confirm the presence of KCa3.1 channels; endogenous in cells; host or cells: NIH-3T3 fibroblasts
Put plainly: Whole-cell patch-clamp of KCa3.1 currents in NIH-3T3 fibroblasts. It counts as cell-based. The protocol:
(§2) Electrophysiological analysis was performed according to the methods reported by Nilius and the like [Nilius et al., 1993, Pflugers Arch., 424(3-4): 285-293]. The patch-clamp technique was used in the whole-cell and excised patch configurations at room temperature. Whole-cell currents were measured using ruptured patches. Currents were monitored using an appropriate amplifier (EPC-10, HEKA, Lambrecht, Germany). In the whole cell experiment, we applied a voltage ramp from −100 mV to +100 mV with a 10 sec interval (650 ms duration) or voltage steps from a holding potential of −60 mV to potentials ranging from −100 mV to +100 mV in 20 mV increments (1 sec duration) with a 5 sec interval. Currents were recorded at a sampling rate of 1-4 kHz. Inside-out voltage clamps were performed using glass electrodes of tip resistance of 8-10 MΩ. Data were filtered at 1 KHz and stored in a computer for analysis using standard software (Axoscope 9.0, Axon Instruments, Foster City, Calif., USA). For some experiments, channel activity was expressed as the product of the number of channels times open probability (NPo), where NPo=Σ[(open time×number of open channels)/Total time of record].
(§3) The standard external solution contains the following substance within NaOH solution of pH 7.4; 150 mM NaCl, 6 mM KCl, 1.5 mM CaCl2, 1 mM MgCl2, 10 mM HEPES, and 10 mM glucoses. The osmolarity of this solution, as determined by an osmometer (Fiske, Norwood, Mass., USA), was 320±5 mOsm. In the inside-out mode, the bath solution contains 150 mM KCl, 0.5 mM MgCl2, 10 mM HEPES within KOH solution of pH 7.2, and the pipette solution contains 150 mM NaCl, 6 mM KCl, 1 mM MgCl2, 10 mM HEPES, 10 mM glucoses, 5 mM EGTA within NaOH solution of pH 7.4. Free Ca2+ concentrations in the pipette or bath solutions were adjusted to 1 μM by adding appropriate amounts of Ca2+ (calculated using CaBuf software; G. Droogmans, Leuven, ftp://ftp.cc.kuleuven.ac.be/pub/droogmans/cabuf.zip) in the presence of 5 mM EGTA.
KCa3.1 currents were activated by adding 1-ethyl-2-benzimidazolinone (1-EBIO, 100 μM) to the external solution and loading 1 μM Ca2+ via patch pipette in whole-cell clamped NIH-3T3 fibroblasts.
For orientation: Patch clamp records ionic current or voltage across a cell membrane.

Test [4] concerns the target T1, KCa3.1 channel. The test is described as follows: Inside-out patch single channel recording of KCa3.1 channels in NIH-3T3 cells. Type of test: cell-based. The procedure: as §2, §3
In inside-out patches, KCa3.1 channels were activated by clamping Ca2+ concentration of the bath solution to 1 μM and applying 1-EBIO. The holding potential was then changed from −70 to 50 mV (FIG. 7). The single channel currents were inhibited by TRAM-34. […] The present inventors then applied modafinil (30 or 100 nM) to the bath solution. […] The open probability was also not changed by modafinil (FIGS. 7A and 7B). A linear fit of the data between 50 to −70 mV yielded a slope conductance of 38.1 pS in the control group and 39.4 pS in the presence group of modafinil (FIG. 7C).

In test [5] the test system is mouse aortic smooth muscle cells. The test is described as follows: Measurement of intracellular cAMP in cultured mouse aortic smooth muscle cells. It counts as cell-based. The protocol:
Single smooth muscle cells (SMCs) were used to examine the effect of modafinil on vascular diseases. Single smooth muscle cells were separated from an aorta of the mouse. Three to four-month-old mice of either gender were anaesthetized with pentobarbital sodium (50 mg/kg weight) and sacrificed by cervical dislocation. Thoracic aortas were dissected out in Ca2+-free external solution and dissociated by incubation in papain (1 mg/ml) for 5 min followed by incubation in collagenase (1.5 mg/ml), bovine serum albumin (BSA; 2 mg/ml) and dithiothreitol (1 mg/ml) for 10 to 20 min in Ca2+-free external solution at 37° C. Segments were then transferred to fresh Ca2+-free external solution, and single mouse SMCs were dispersed with gentle agitation using a glass pipette. Mouse aortic SMCs were cultivated in Dulbecco's Modified Eagle Medium (DMEM) containing 10% fetal bovine serum (FBS) plus 1% minimum essential amino acids (Life Technologies). Cell culture was maintained at 37° C. in fully humidified air with 5% CO2.
Cultured mouse aortic SMCs were incubated with modafinil for 3 minutes within incomplete media. The concentration of cAMP (adenosine 3″,5″-cyclic monophosphate) from lysate was determined in each sample using a Parameter cAMP assay kit (R&D Systems) according to the manufacturer's instructions.

A further test has as its system mouse aortic rings. The test is described as follows: Contraction measurement on isolated mouse aortic rings. The following applies: mouse aortic rings contracted by norepinephrine (0.1 μM), Hill's equation; read-out: IC50 of relaxation of contracted rings. The protocol:
as §1, with “K+. […]” for “K+.”

The mark [6] stands for this setting: currents activated by 1 μM Ca2+ and 1-EBIO 100 μM.
Where [7] appears, read: modafinil 30 or 100 nM in bath solution.

The IC50 is the concentration that gives 50% inhibition.

Each structure is given as a SMILES string. Where two headings read alike, the source gives them in different places.

T1 sequence (O89109 whole entry): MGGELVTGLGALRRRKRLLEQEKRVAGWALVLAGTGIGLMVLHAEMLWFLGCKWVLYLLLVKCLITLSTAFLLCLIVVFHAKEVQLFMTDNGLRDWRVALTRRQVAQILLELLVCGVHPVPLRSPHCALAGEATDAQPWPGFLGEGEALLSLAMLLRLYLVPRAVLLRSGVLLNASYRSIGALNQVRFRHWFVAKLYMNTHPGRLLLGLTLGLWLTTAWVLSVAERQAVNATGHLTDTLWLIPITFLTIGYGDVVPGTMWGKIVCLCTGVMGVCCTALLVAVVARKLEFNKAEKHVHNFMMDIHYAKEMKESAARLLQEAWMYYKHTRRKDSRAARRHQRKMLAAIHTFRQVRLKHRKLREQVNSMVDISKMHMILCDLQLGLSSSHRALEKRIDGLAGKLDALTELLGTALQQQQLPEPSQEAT

Regarding `O=S(=O)(NCCNC/C=C/c1ccc(Br)cc1)c1cccc2cnccc12` [H89], the “effect on channel phosphorylation in the resting state and by forskolin” value with KCa3.1 channel [1] (NIH-3T3 cells pretreated with PKA inhibitor for 30 min) is listed as “completely abolished”.

Turning to `O=C(CSC(c1ccccc1)c1ccccc1)NCC1CCCO1` (centres unmarked) [M006, 2-(benzhydrylthio)-N-((tetrahydrofuran-2-yl)methyl)acetamide], the “intracellular cAMP concentration” value in the test on NIH-3T3 fibroblasts is given as “increased the intracellular cAMP concentration in a concentration-dependent manner”. Moreover, the “effect on vascular smooth muscle contraction” value in test [2] is recorded as “relaxed”. In addition, the “effect on KCa3.1 currents” value on KCa3.1 channel [3] (setting [6]) was “inhibited”.

Regarding `O=C(CSC(c1ccccc1)c1ccccc1)Nc1ccccc1` [M008, 2-(benzhydrylthio)-N-phenylacetamide], the “intracellular cAMP concentration” value in the test on NIH-3T3 fibroblasts is listed as “increased the intracellular cAMP concentration in a concentration-dependent manner”. For the same molecule, in test [2], the “effect on vascular smooth muscle contraction” value was “relaxed”. Further, on KCa3.1 channel [3] (setting [6]), the “effect on KCa3.1 currents” value is listed as “inhibited”.

Consider `CNC(=O)C[S+]([O-])C(c1ccccc1)c1ccccc1` (centres unmarked) [M015, 2-(benzhydrylsulfinyl)-N-methylacetamide], for which, in the test with NIH-3T3 fibroblasts, the “intracellular cAMP concentration” value is given as “increased the intracellular cAMP concentration in a concentration-dependent manner”. Besides, in test [2], the “effect on vascular smooth muscle contraction” value is “relaxed”. Further, the “effect on KCa3.1 currents” value on KCa3.1 channel [3] (setting [6]) is given as “inhibited”.

Regarding `O=C(C[S+]([O-])C(c1ccccc1)c1ccccc1)NCC1CCCO1` (centres unmarked) [M020, 2-(benzhydrylsulfinyl)-N-((tetrahydrofuran-2-yl)methyl) acetamide], in the test on NIH-3T3 fibroblasts, the “intracellular cAMP concentration” value was “increased the intracellular cAMP concentration in a concentration-dependent manner”. In addition, the “effect on vascular smooth muscle contraction” value in test [2] is “relaxed”. Besides, the “effect on KCa3.1 currents” value at KCa3.1 channel [3] (setting [6]) is recorded as “inhibited”.

As to `Clc1ccccc1C(c1ccccc1)(c1ccccc1)n1cccn1` [TRAM-34], the “effect on single channel currents” value at KCa3.1 channel [4] (activated by 1 μM Ca2+ and 1-EBIO) is reported as “inhibited”. Besides, the “effect on KCa3.1 currents” value at KCa3.1 channel [3] (setting [6]) is listed as “inhibited”.

Take `CC#CCC(C)[C@H](O)/C=C/[C@@H]1[C@H]2C/C(=C/CCCC(=O)O)C[C@H]2C[C@H]1O` (some centres unmarked) [iloprost]: in the test with NIH-3T3 fibroblasts, the “intracellular cAMP concentration” value was “increased cAMP concentration”. Besides, the IC50 in test [2] (read-out: IC50 of inhibition of rat pulmonary arterial contraction) was found to be 39.4 ± 5.1 nM.

In the case of `NC(=O)C[S+]([O-])C(c1ccccc1)c1ccccc1` (centres unmarked) [modafinil, 2-(benzhydrylsulfinyl) acetamide], the “concentration of cAMP compared to treating the cell with 10 μM of forskolin” value in the test on NIH-3T3 fibroblasts (NIH-3T3 cell, 1 μM of modafinil) was 2 times. In addition, the “intracellular cAMP concentration” value (with NIH-3T3 fibroblasts; in test [5] (cultured mouse aortic SMCs exposed for 3 minutes)) was “increased in a concentration-dependent manner” throughout. Moreover, the “slope conductance of single KCa3.1 channel” value on KCa3.1 channel [4] (linear fit between 50 to -70 mV, in the presence of modafinil) amounted to 39.4 pS. Also, the “open probability of KCa3.1 channels” value at KCa3.1 channel [4] (setting [7]) is reported as “not changed”. At KCa3.1 channel [4] (setting [7]), the “single channel activity of KCa3.1 channels” value was “did not change”. Moreover, the “concentration from which intracellular cAMP concentration significantly increased” value in test [5] (primary cultured mouse aortic smooth muscle cells, 3 min, p<0.01) is 10 nM. The IC50 turned out to be 11.9 ± 0.3 nM in the test on mouse aortic rings, 10.5 ± 0.4 nM in test [2] (read-out: IC50 of relaxation of contracted artery), 10.1 ± 0.1 nM in test [2] (read-out: IC50 of relaxation of contracted rings) and 6.8 ± 0.7 nM at KCa3.1 channel [3]. In addition, in the test on KCa3.1 channel [1] (NIH-3T3 cells, treatment for 5 min), the KCa3.1 channel phosphorylation result is listed as “increased KCa3.1 phosphorylation in a concentration-dependent manner”. Further, the “effect on KCa3.1 currents in cells pretreated by H89” value on KCa3.1 channel [3] (H89 (10 μM) pretreatment) is recorded as “not inhibited”. Moreover, the “effect on KCa3.1 currents with PKI14-22 in the pipette solution” value at KCa3.1 channel [3] (PKI14-22 (10 μM) in pipette solution) was “not affected”. Also, the “concentration for maximal inhibition of KCa3.1 currents” value at KCa3.1 channel [3] (setting [6]) came to 100.0 ± 5.7 nM.

These data come from patent US9259412B2, “Composition of the treatment of vascular diseases or KCa3.1 channel-mediated diseases comprising modafinil or derivatives thereof” (EWHA UNIVERSITY—INDUSTRY COLLABORATION FOUNDATION, priority 2011, dated 2016).
